Measured values: patent US6410340B1, “Use of an 8.4 kDa protein as an immunophilin reagent in protein binding assays for immunosuppressive drugs” (Children's Research Institute, priority 2000, dated 2002)
pKd: −log10 of the molar value.

Assays:
[1] = biological target: T1, 8.4 kDa immunophilin (Bos taurus, UniProt P62992); assay: Binding of [mebmt-beta-3H]-CsA to the 8.4 kDa immunophilin; parameters: species or system calf; settings: too low to measure; dissociation constant could not be determined
T1 construct: from tissue; host or cells: calf thymus
T1 sequence (P62992 1-74 limits assumed): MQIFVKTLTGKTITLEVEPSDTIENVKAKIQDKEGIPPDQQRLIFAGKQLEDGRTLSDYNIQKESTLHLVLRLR
Description: A dissociation constant for [mebmt-beta-3H]-CsA with the 8.4 kDa immunophilin could not be determined, as the binding of this drug to the protein was too low to measure (0.13%).

[2] = biological target: T1, 8.4 kDa immunophilin; assay: Displacement of tritiated FK-506 from the 8.4 kDa immunophilin by RAP; type: binding, calf; settings: displacement of tritiated FK-506 by RAP; read-out: calculated Kd
Description: An immunophilin protein binding assay (“IBA”) carried out in accordance with this invention can be performed by solution phase or solid phase methods. The basic principle underlying each method is the same, and is described in, e.g., Davis et al., Clin. Biochem. 33:1(2000) and the Soldin patents listed above. Briefly, in a competitive IBA, a competition equilibrium is set up between a tracer amount of labeled drug and the corresponding drug in unknown samples containing the drug or biologically-active metabolites for binding to specific binding sites on an immunophilin. Following attainment of equilibrium, the amount of labeled drug bound to the immunophilin is determined. The amount of labeled drug bound will be reduced in proportion to the amount of analyte in a biological sample being analyzed. The quantitative relationship between the reduction of immunophilin-bound labeled drug and the concentration of the analyte in the unknown sample is determined by reference to a standard calibration curve. […] The amount of labeled drug bound to an immunophilin need not be determined directly; it may be determined by subtracting from the total amount of label added […] in the solution at equilibrium. […]

[3] = cited from earlier work; for fraction in the blood in the form of the parent compound: patients; for metabolites as share of all drug species in blood: rapamycin: trough blood samples
[4] = test system: 52 kDa immunophilin; settings: Davis et al. 2000; cited from earlier work
[5] = test system: 5-8 kDa immunophilin; settings: cited from earlier work
[6] = biological target: T1, 8.4 kDa immunophilin; assay: Saturation analysis of tritiated FK-506 binding to calf thymus 8.4 kDa immunophilin (Scatchard, Hill plots); settings: tritiated FK-506, calf thymus 8.4 kDa immunophilin, EBDA/LIGAND
Description: Analytical data on purified immunophilins may be obtained conventionally. Association constants, specific binding activities, and numbers and types of binding sites can be obtained from Scatchard and Hill plots, using EBDA and LIGAND software. Isoelectric points (“pI”) can be obtained by isofocussing techniques. To obtain amino acid composition data, samples can be hydrolyzed by HCl gas in the presence of internal standards (e.g., norvaline and sarcosine), the products derivatized with a fluorescent reagent, and the derivatized amino acids separated on a Hewlett-Packard AMINO QUANT Analyzer. […]
An immunophilin protein binding assay (“IBA”) carried out in accordance with this invention can be performed by solution phase or solid phase methods. […] Following attainment of equilibrium, the amount of labeled drug bound to the immunophilin is determined. The amount of labeled drug bound will be reduced in proportion to the amount of analyte in a biological sample being analyzed. The quantitative relationship between the reduction of immunophilin-bound labeled drug and the concentration of the analyte in the unknown sample is determined by reference to a standard calibration curve. […] The amount of labeled drug bound to an immunophilin need not be determined directly; it may be determined by subtracting from the total amount of label added […] in the solution at equilibrium. […]

| Compound | binding to 52 kDa immunophilin [4] | binding to 5-8 kDa immunophilin [5] | also measured |
| --- | --- | --- | --- |
| cyclosporin A [CsA] | – | – | binding of the drug to the protein [1]: 0.13% |
| CO[C@H]1C[C@@H]2CC[C@@H](C)[C@@](O)(O2)C(=O)C(=O)N2CCCC[C@H]2C(=O)O[C@H]([C@H](C)C[C@@H]2CC[C@@H](O)[C@H](OC)C2)CC(=O)[C@H](C)/C=C(\C)[C@@H](O)[C@@H](OC)C(=O)[C@H](C)C[C@H](C)/C=C/C=C/C=C/1C [RAP, rapamycin] | – | – | pKd [2]: 10.10; fraction in the blood in the form of the parent compound [3]: ½; metabolites as share of all drug species in blood [3]: at least 50% |
| 32,41-0-demethyl sirolimus | substantially binds | substantially binds | – |
| (C9-C23)-OH-sirolimus | all but the fourth metabolite substantially binds | all but the fourth metabolite substantially binds | – |
| 41-0-demethyl sirolimus | substantially binds | substantially binds | – |
| C=CC[C@@H]1/C=C(\C)C[C@H](C)C[C@H](OC)[C@H]2O[C@@](O)(C(=O)C(=O)N3CCCC[C@H]3C(=O)O[C@H](/C(C)=C/[C@@H]3CC[C@@H](O)[C@H](OC)C3)[C@H](C)[C@@H](O)CC1=O)[C@H](C)C[C@@H]2OC [FK-506] | – | – | pKd [6]: 9.10; fraction in the blood in the form of the parent compound [3]: ¾; metabolites as share of all drug species in blood [3]: about 30% |
| 7-0-demethyl sirolimus | substantially binds | substantially binds | – |
| (C1-C8 or C32-C36) OH sirolimus | substantially binds | substantially binds | – |
